Measurements taken from the supplement of paper PMC4862054.

Key:
Conditions in all cases: 72 h
BT-549 [1] = tested on: BT-549
Procedure, shortened: (§1)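 In this assay, breast cancer cell lines spent 72 h with compound at 5 concentrations in 10-fold steps over a compound-specific 10,000-fold range. The first readout was cell death by CellTox Green fluorescence, and the second was viability by CellTiter-Glo luminescence, each normalised per plate to 0.1 % DMSO and a positive kill control. EC50 came from the dose-response curves, censored at the top concentration.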

CAL-148 = tested on: CAL-148
Procedure, shortened: as §1

CAL-51 [2] = tested on: CAL-51
Procedure, shortened: as §1

CAL-85-1 [3] = tested on: CAL-85-1
Procedure, shortened: as §1

DU-4475 [4] = tested on: DU-4475
Procedure, shortened: as §1

HCC1143 [5] = tested on: HCC1143
Procedure, shortened: as §1

HCC1937 = tested on: HCC1937
Procedure, shortened: as §1

HDQ-P1 [6] = tested on: HDQ-P1
Procedure, shortened: as §1

Hs578T [7] = tested on: Hs578T
Procedure, shortened: as §1

MDA-MB-436 = tested on: MDA-MB-436
Procedure, shortened: as §1

MDA-MB-453 [8] = tested on: MDA-MB-453
Procedure, shortened: as §1

MFM-223 [9] = tested on: MFM-223
Procedure, shortened: as §1

SK-BR-3 = tested on: SK-BR-3
Procedure, shortened: as §1

CAL-85-1 [10] = tested on: CAL-85-1; remark: listed apart in the source
Procedure, shortened: (§2)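 Each 384-well plate was pre-loaded with compound dissolved in 5 µl medium, received breast cancer cells in 20 µl suspension, and was incubated 72 h. A 2.5 µl addition of CellTiter-Blue for 2 h at 37 °C was followed by a fluorescence read at 560/590 nm. Data were normalised per plate to vehicle and a positive kill control and checked by Z'-factor. EC50 was fitted from the percent-inhibition dose-response curve, censored at the highest concentration, excluding rows with a drug sensitivity score of zero.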

DU-4475 [11] = tested on: DU-4475; remark: listed apart in the source
Procedure, shortened: as §2

HDQ-P1 [12] = tested on: HDQ-P1; remark: listed apart in the source
Procedure, shortened: as §2

MDA-MB-453 [13] = tested on: MDA-MB-453; remark: listed apart in the source
Procedure, shortened: as §2

BT-474 [14] = tested on: BT-474
Procedure, shortened: as §2

HCC1143 [15] = tested on: HCC1143; remark: listed apart in the source
Procedure, shortened: as §2

Hs578T [16] = tested on: Hs578T; remark: listed apart in the source
Procedure, shortened: as §2

MDA-MB-468 [17] = tested on: MDA-MB-468
Procedure, shortened: as §2

MFM-223 [18] = tested on: MFM-223; remark: listed apart in the source
Procedure, shortened: as §2

Hs578T [19] = tested on: Hs578T; remark: listed apart in the source
Description: (§3)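 Drug sensitivity and resistance testing (DSRT) of breast cancer cell lines in 384-well plates, 5 concentrations in 10-fold dilutions over a compound-specific 10,000-fold range. After 72 h, cytotoxicity was read by CellTox Green fluorescence and viability by CellTiter-Glo luminescence (multiplexed), normalised to DMSO and benzethonium chloride controls. EC50 is the inflection point of the fitted dose-response curve (bottom asymptote free, so it can be relative for partial curves) and is censored at the highest tested concentration. Rows with DSS 0 (no meaningful response) were excluded.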

CAL-85-1 [20] = tested on: CAL-85-1; remark: listed apart in the source
Description: as §3

BT-474 [21] = tested on: BT-474; remark: listed apart in the source
Procedure, shortened: as §1

HCC1599 [22] = tested on: HCC1599
Procedure, shortened: as §1

MCF-10A [23] = tested on: MCF-10A
Procedure, shortened: as §1

MDA-MB-231 [24] = tested on: MDA-MB-231
Procedure, shortened: as §1

HCC1599 [25] = tested on: HCC1599; remark: listed apart in the source
Procedure, shortened: as §2

MDA-MB-231 [26] = tested on: MDA-MB-231; remark: listed apart in the source
Procedure, shortened: as §2

BT-474 [27] = tested on: BT-474; remark: listed apart in the source
Description: as §3

BT-549 [28] = tested on: BT-549; remark: listed apart in the source
Description: as §3

CAL-120 = tested on: CAL-120
Description: as §3

CAL-51 [29] = tested on: CAL-51; remark: listed apart in the source
Description: as §3

HCC1143 [30] = tested on: HCC1143; remark: listed apart in the source
Description: as §3

HCC1599 [31] = tested on: HCC1599; remark: listed apart in the source
Description: as §3

MCF-10A [32] = tested on: MCF-10A; remark: listed apart in the source
Description: as §3

MDA-MB-231 [33] = tested on: MDA-MB-231; remark: listed apart in the source
Description: as §3

MDA-MB-468 [34] = tested on: MDA-MB-468; remark: listed apart in the source
Description: as §3

MFM-223 [35] = tested on: MFM-223; remark: listed apart in the source
Description: as §3

| SMILES | EC50, CellTiter-Glo (BT-549 [1]) | EC50, CellTiter-Glo (CAL-148) | EC50, CellTiter-Glo (CAL-51 [2]) | EC50, CellTiter-Glo (CAL-85-1 [3]) | EC50, CellTiter-Glo (DU-4475 [4]) | EC50, CellTiter-Glo (HCC1143 [5]) | EC50, CellTiter-Glo (HCC1937) | EC50, CellTiter-Glo (HDQ-P1 [6]) | EC50, CellTiter-Glo (Hs578T [7]) | EC50, CellTiter-Glo (MDA-MB-436) | EC50, CellTiter-Glo (MDA-MB-453 [8]) | EC50, CellTiter-Glo (MFM-223 [9]) | EC50, CellTiter-Glo (SK-BR-3) | EC50, CellTiter-Blue viability (CAL-85-1 [10]) | EC50, CellTiter-Blue viability (DU-4475 [11]) | EC50, CellTiter-Blue viability (HDQ-P1 [12]) | EC50, CellTiter-Blue viability (MDA-MB-453 [13]) | EC50, CellTiter-Blue viability (BT-474 [14]) | EC50, CellTiter-Blue viability (HCC1143 [15]) | EC50, CellTiter-Blue viability (Hs578T [16]) | EC50, CellTiter-Blue viability (MDA-MB-468 [17]) | EC50, CellTiter-Blue viability (MFM-223 [18]) | EC50, CellTox Green (Hs578T [19]) | EC50, CellTox Green (CAL-85-1 [20]) | EC50, CellTiter-Glo (BT-474 [21]) | EC50, CellTiter-Glo (HCC1599 [22]) | EC50, CellTiter-Glo (MCF-10A [23]) | EC50, CellTiter-Glo (MDA-MB-231 [24]) | EC50, CellTiter-Blue viability (HCC1599 [25]) | EC50, CellTiter-Blue viability (MDA-MB-231 [26]) | EC50, CellTox Green (BT-474 [27]) | EC50, CellTox Green (BT-549 [28]) | EC50, CellTox Green (CAL-120) | EC50, CellTox Green (CAL-51 [29]) | EC50, CellTox Green (HCC1143 [30]) | EC50, CellTox Green (HCC1599 [31]) | EC50, CellTox Green (MCF-10A [32]) | EC50, CellTox Green (MDA-MB-231 [33]) | EC50, CellTox Green (MDA-MB-468 [34]) | EC50, CellTox Green (MFM-223 [35]) |
| --- | --- | --- | --- | --- | --- | --- | --- | --- | --- | --- | --- | --- | --- | --- | --- | --- | --- | --- | --- | --- | --- | --- | --- | --- | --- | --- | --- | --- | --- | --- | --- | --- | --- | --- | --- | --- | --- | --- | --- | --- |
| CO[C@H]1C[C@@H]2CC[C@@H](C)[C@@](O)(O2)C(=O)C(=O)N2CCCC[C@H]2C(=O)O[C@H]([C@H](C)C[C@@H]2CC[C@@H](OC(=O)C(C)(CO)CO)[C@H](OC)C2)CC(=O)[C@H](C)/C=C(\C)[C@@H](O)[C@@H](OC)C(=O)[C@H](C)C[C@H](C)/C=C/C=C/C=C/1C [Temsirolimus] | 0.32 nM | 1.28 nM | 0.65 nM | 0.67 nM | 1.42 nM | 0.8 nM | 0.46 nM | 17.9 nM | 0.15 nM | 6.71 nM | 1.5 nM | 0.77 nM | 0.46 nM | 0.11 nM | 2.16 nM | 1.34 nM | 0.37 nM | 0.67 nM | 1.62 nM | 1 nM | 0.39 nM | 0.18 nM | 1.28 nM |  |  |  |  |  |  |  |  |  |  |  |  |  |  |  |  |  |
| C[C@]1(c2nc3c(C(N)=O)cccc3[nH]2)CCCN1 [Veliparib] |  |  | 50 nM |  |  |  |  |  |  |  |  |  |  |  |  |  |  |  |  |  |  |  |  | > 10000 nM |  |  |  |  |  |  |  |  |  |  |  |  |  |  |  |  |
| CC[C@]1(O)C[C@@H]2CN(CCc3c([nH]c4ccccc34)[C@@](C(=O)OC)(c3cc4c(cc3OC)N(C)[C@H]3[C@@](O)(C(=O)OC)[C@H](OC(C)=O)[C@]5(CC)C=CCN6CC[C@]43[C@@H]65)C2)C1 [Vinblastine] | 2.25 nM | 8.95 nM | 8.68 nM | 2.04 nM | 75.5 nM | 2.51 nM | 2.55 nM | 5.35 nM | 9.25 nM | 3.49 nM | 2.44 nM | 12.4 nM | 2.44 nM | 6.34 nM | 52.4 nM | 5.43 nM | 6.17 nM | 0.15 nM | 1.61 nM | 1.3 nM | 1.5 nM | 36 nM | 15.2 nM | 9.62 nM | 5.38 nM | 19.7 nM | 2.59 nM | 5.07 nM | 61.1 nM | 1.61 nM | 2.92 nM | 4.29 nM | > 1000 nM | 3.78 nM | 61.8 nM | 7.49 nM | 11.4 nM | 15.8 nM | 2.48 nM | 7.9 nM |
| CS(=O)(=O)c1ccc(C(=O)Nc2ccc(Cl)c(-c3ccccn3)c2)c(Cl)c1 [Vismodegib] |  |  |  |  |  |  |  |  |  |  |  |  |  |  |  |  |  |  |  |  |  |  | > 10000 nM |  |  |  |  |  |  |  |  |  |  |  |  |  |  |  |  |  |
